Measurements as given in the NIST ThermoML archive (doi:10.1021/acs.jced.7b00176).

Experiment: xn = mol fraction of the nth substance listed
Conditions: Liquid, Vibrating tube method

COCCOCCOC [2,5,8-trioxanonane] + CCCCO
Conditions	mass density [kg/m3]
323.26 K, 30000 kPa, x2 = 0.7308	855.36
323.27 K, 100 kPa, x2 = 0.3116	884.02
323.27 K, 5000 kPa, x2 = 0.3116	888.39
323.27 K, 40000 kPa, x2 = 0.7308	862.01
323.27 K, 60000 kPa, x2 = 0.7308	874.24
323.27 K, 80000 kPa, x2 = 0.7308	885.1
323.27 K, 100000 kPa, x2 = 0.7308	894.94
323.28 K, 1000 kPa, x2 = 0.3116	884.84
323.28 K, 10000 kPa, x2 = 0.3116	892.57
323.28 K, 20000 kPa, x2 = 0.3116	900.61
323.28 K, 30000 kPa, x2 = 0.3116	907.85
323.28 K, 40000 kPa, x2 = 0.3116	914.76
323.28 K, 80000 kPa, x2 = 0.3116	938.32
323.29 K, 100 kPa, x2 = 0.8787	809.04
323.29 K, 1000 kPa, x2 = 0.8787	809.88
323.29 K, 5000 kPa, x2 = 0.8787	813.32
323.29 K, 10000 kPa, x2 = 0.8787	817.49
323.29 K, 20000 kPa, x2 = 0.8787	825.25
323.29 K, 30000 kPa, x2 = 0.8787	832.38
323.29 K, 40000 kPa, x2 = 0.8787	838.96
323.29 K, 60000 kPa, x2 = 0.3116	927.16
323.29 K, 60000 kPa, x2 = 0.8787	850.97
323.29 K, 80000 kPa, x2 = 0.8787	861.63
323.29 K, 100000 kPa, x2 = 0.3116	948.49
323.29 K, 100010 kPa, x2 = 0.8787	871.34
342.49 K, 100 kPa, x2 = 0	894.03
342.49 K, 1000 kPa, x2 = 0	894.98
342.49 K, 5000 kPa, x2 = 0	898.96
342.5 K, 10000 kPa, x2 = 0	903.66
342.5 K, 20000 kPa, x2 = 0	912.57
342.51 K, 30000 kPa, x2 = 0	920.68
342.51 K, 40000 kPa, x2 = 0	928.18
342.51 K, 60000 kPa, x2 = 0	941.77
342.51 K, 80000 kPa, x2 = 0	953.82
342.52 K, 100000 kPa, x2 = 0	964.68
342.99 K, 100 kPa, x2 = 0.5469	838.63
343 K, 1000 kPa, x2 = 0.5469	839.58
343 K, 5000 kPa, x2 = 0.5469	843.51
343 K, 10000 kPa, x2 = 0.5469	848.2
343.01 K, 20000 kPa, x2 = 0.5469	856.98
343.01 K, 30000 kPa, x2 = 0.5469	864.93
343.01 K, 40000 kPa, x2 = 0.5469	872.29
343.01 K, 60000 kPa, x2 = 0.5469	885.57
343.01 K, 80000 kPa, x2 = 0.5469	897.36
343.02 K, 100 kPa, x2 = 0.7308	814.17
343.02 K, 100000 kPa, x2 = 0.5469	907.94
343.03 K, 1000 kPa, x2 = 0.7308	815.11
343.03 K, 5000 kPa, x2 = 0.7308	819.06
343.03 K, 80000 kPa, x2 = 0.8787	849.39
343.04 K, 100 kPa, x2 = 0.3116	864.74
343.04 K, 100 kPa, x2 = 0.8787	792.02
343.04 K, 1000 kPa, x2 = 0.3116	865.7
343.04 K, 1000 kPa, x2 = 0.8787	792.98
343.04 K, 5000 kPa, x2 = 0.8787	796.88
343.04 K, 10000 kPa, x2 = 0.7308	823.7
343.04 K, 10000 kPa, x2 = 0.8787	801.5
343.04 K, 20000 kPa, x2 = 0.7308	832.39
343.04 K, 20000 kPa, x2 = 0.8787	810.09
343.04 K, 30000 kPa, x2 = 0.7308	840.28
343.04 K, 30000 kPa, x2 = 0.8787	817.86
343.04 K, 40000 kPa, x2 = 0.7308	847.55
343.04 K, 40000 kPa, x2 = 0.8787	825.03
343.04 K, 60000 kPa, x2 = 0.7308	860.64
343.04 K, 60000 kPa, x2 = 0.8787	837.96
343.04 K, 80000 kPa, x2 = 0.7308	872.22
343.04 K, 100000 kPa, x2 = 0.7308	882.62
343.04 K, 100000 kPa, x2 = 0.8787	859.63
343.05 K, 5000 kPa, x2 = 0.3116	869.66
343.05 K, 10000 kPa, x2 = 0.3116	874.4
343.06 K, 20000 kPa, x2 = 0.3116	883.26
343.06 K, 30000 kPa, x2 = 0.3116	891.31
343.06 K, 40000 kPa, x2 = 0.3116	898.79
343.06 K, 60000 kPa, x2 = 0.3116	912.24
343.07 K, 80000 kPa, x2 = 0.3116	924.13
343.08 K, 100000 kPa, x2 = 0.3116	934.89
362.51 K, 100 kPa, x2 = 0	873.45
362.51 K, 1000 kPa, x2 = 0	874.46
362.51 K, 5000 kPa, x2 = 0	879.02
362.52 K, 10000 kPa, x2 = 0	884.41
362.52 K, 20000 kPa, x2 = 0	894.33
362.52 K, 30000 kPa, x2 = 0	903.29
362.52 K, 40000 kPa, x2 = 0	911.53
362.53 K, 60000 kPa, x2 = 0	926.3
362.53 K, 80000 kPa, x2 = 0	939.26
362.53 K, 100000 kPa, x2 = 0	950.89
362.67 K, 100 kPa, x2 = 0.5469	819.52
362.68 K, 1000 kPa, x2 = 0.5469	820.52
362.68 K, 5000 kPa, x2 = 0.5469	825.03
362.68 K, 10000 kPa, x2 = 0.5469	830.34
362.69 K, 100 kPa, x2 = 0.8787	774.25
362.69 K, 1000 kPa, x2 = 0.8787	775.26
362.69 K, 5000 kPa, x2 = 0.8787	779.7
362.69 K, 20000 kPa, x2 = 0.5469	840.09
362.69 K, 30000 kPa, x2 = 0.5469	848.85
362.69 K, 40000 kPa, x2 = 0.5469	856.9
362.69 K, 60000 kPa, x2 = 0.5469	871.26
362.69 K, 80000 kPa, x2 = 0.5469	883.92
362.7 K, 5000 kPa, x2 = 0.3116	850.69
362.7 K, 10000 kPa, x2 = 0.8787	784.88
362.7 K, 20000 kPa, x2 = 0.8787	794.41
362.7 K, 30000 kPa, x2 = 0.8787	802.93
362.7 K, 40000 kPa, x2 = 0.8787	810.75
362.7 K, 60000 kPa, x2 = 0.8787	824.68
362.7 K, 100000 kPa, x2 = 0.5469	895.2
362.71 K, 100 kPa, x2 = 0.3116	845.12
362.71 K, 100 kPa, x2 = 0.7308	795.72
362.71 K, 1000 kPa, x2 = 0.3116	846.14
362.71 K, 10000 kPa, x2 = 0.3116	856.03
362.71 K, 20000 kPa, x2 = 0.3116	865.91
362.71 K, 30000 kPa, x2 = 0.3116	874.79
362.71 K, 80000 kPa, x2 = 0.8787	836.92
362.71 K, 100000 kPa, x2 = 0.8787	847.79
362.72 K, 1000 kPa, x2 = 0.7308	796.73
362.72 K, 5000 kPa, x2 = 0.7308	801.19
362.72 K, 10000 kPa, x2 = 0.7308	806.44
362.72 K, 20000 kPa, x2 = 0.7308	816.08
362.72 K, 30000 kPa, x2 = 0.7308	824.74
362.72 K, 40000 kPa, x2 = 0.3116	882.96
362.72 K, 40000 kPa, x2 = 0.7308	832.66
362.72 K, 60000 kPa, x2 = 0.3116	897.55
362.72 K, 80000 kPa, x2 = 0.3116	910.38
362.72 K, 100000 kPa, x2 = 0.3116	921.84
362.73 K, 60000 kPa, x2 = 0.7308	846.83
362.73 K, 80000 kPa, x2 = 0.7308	859.23
362.73 K, 100000 kPa, x2 = 0.7308	870.28
